From patent US10759787B2, “Benzofuran derivative, preparation method thereof and use thereof in medicine” (Jiangsu Hengrui Medicine Co., Ltd., priority 2015, dated 2020)

Experiments:
Pfeiffer cells = assay: In vitro anti-tumor cell growth assay (CellTiter-Glo), Pfeiffer; format: cell-based; settings: Homo sapiens, 120 h; Pfeiffer cells (A677G mutant), 5 days; read-out: IC50 for inhibiting the growth activity of tumor cells (Pfeiffer) in vitro
Procedure: (§1) Test Example 2. Assay for Determining In Vitro Anti-Tumor Cell Growth Activity of the Example Compounds of the Present Invention
(§2) This method was used to determinate the inhibitory effect of the compounds of the present invention on the growth activity of tumor cells (Pfeiffer or WSU-DLCL2) in vitro. Pfeiffer cells carry A677G mutant, and WSU-DLCL2 cells carry Y641F mutant.
(§3) The lymphoma suspension cell line (Pfeiffer or WSU-DLCL2) was cultured in a RPMI-1640 medium containing 10% inactivated Fetal Bovine Serum, 100 U/mL penicillin, and 100 μg/mL streptomycin, and incubated in an incubator with 5% carbon dioxide at 37° C. under a saturated humidity condition, and passaged every 3-4 days.
(§4) A cell sudpension was prepared with a fresh cell medium, added to a 96-well cell culture plate at 8000 cells/well (Pfeiffer) or 2000 cells/well (WSU-DLCL2), and incubated in 5% carbon dioxide at 37° C. incubator overnight. On the day of the experiment, the EZH2 test compounds (final concentration: 20000, 2000, 200, 20, 2, 0.2 nM) were added into the experimental wells for 3 parallel wells per group. A control well with the medium alone but without cells was set up to obtain the background luminescent value. The cell culture plate was incubated in an incubator with 5% carbon dioxide at 37° C. for 5 days.
(§5) After the compounds were applied to the cells for 5 days, the cell culture plate was placed at room temperature for 30 minutes, then a CellTiter-Glo reagent equal to the volume of cell culture medium was added to each well. The contents were mixed on a shaker for 10 minutes, and the […] signal values were recorded. The cell growth inhibition rate was calculated, and the formula was: cell growth inhibiton rate=[(negative control control−experimental group)/(negative control group−background luminescent value)]×100%. The IC50 values (half inhibition rate IC50, i.e., a drug concentration that is required for 50% cell growth inhibition rate) were calculated by software from the cell growth inhibiton rate and the corresponding concentration.

WSU-DLCL2 cells = assay: In vitro anti-tumor cell growth assay (CellTiter-Glo), WSU-DLCL2; format: cell-based; settings: Homo sapiens, WSUDLCL2, 120 h; WSU-DLCL2 cells (Y641F mutant), 5 days; read-out: IC50 for inhibiting the growth activity of tumor cells (WSU-DLCL2) in vitro
Procedure: as §1, §2, §3, §4, §5

[1] = Pharmacokinetics assay in SD rats after intragastrical administration; format: in vivo; settings: both sexes, Sprague-Dawley, rat, plasma, po, 5 mg/kg
Procedure: Test Example 3. Pharmacokinetics Assay of the Compounds of Examples 1, 2, 3 and 9 of the Present Invention
SD rats were used as test animals. The drug concentration in plasma at different time points was determined by LC/MS/MS after intragastrical administration of the compounds of Examples 1, 2, 3 and 9 to the rats. The pharmacokinetic behavior of the compounds of the present invention was studied and evaluated in rats.
16 healthy adult Sprague-Dawley (SD) rats, half male and half female, were purchased from SINO-BRITSH SIPPR/BK LAB. ANIMAL LTD., CO, with Certificate No.: SCXK (Shanghai) 2008-0016.
The appropriate amount of each compound was weighed, and added with 0.5% CMC-Na (containing 1% Tween 80) to prepare a 1.0 mg/mL suspension by grinding.
After an overnight fast, 16 SD rats were divided into 4 groups equally, half male and half female, and administered intragastrically the test compounds at an administration volume of 5 mL/kg.
Blood (0.2 mL) was taken from the orbital sinus before administration and at 0.5, 1.0, 2.0, 4.0, 6.0, 8.0, 11.0, and 24.0 hours after administration. The samples were stored in heparinized tubes, and centrifuged for 10 minutes at 3,500 rpm to separate the blood plasma. The plasma samples were stored at −20° C.
The plasma concentration of the test compounds in rat plasma after intragastric administration was determined by LC-MS/MS.
Pharmacokinetic parameters of the compounds of Examples 1, 2, 3 and 9 of the present invention are shown below: […]

EZH2-A677G = EZH2-A677G (Homo sapiens (Human), UniProt Q15910, A677G); assay: EZH2-A677G mutant enzyme activity assay (HTRF); format: biochemical; settings: read-out: IC50 for inhibiting the activity of enzyme EZH2-A677G
Sequence of EZH2-A677G (Q15910 whole entry A677G): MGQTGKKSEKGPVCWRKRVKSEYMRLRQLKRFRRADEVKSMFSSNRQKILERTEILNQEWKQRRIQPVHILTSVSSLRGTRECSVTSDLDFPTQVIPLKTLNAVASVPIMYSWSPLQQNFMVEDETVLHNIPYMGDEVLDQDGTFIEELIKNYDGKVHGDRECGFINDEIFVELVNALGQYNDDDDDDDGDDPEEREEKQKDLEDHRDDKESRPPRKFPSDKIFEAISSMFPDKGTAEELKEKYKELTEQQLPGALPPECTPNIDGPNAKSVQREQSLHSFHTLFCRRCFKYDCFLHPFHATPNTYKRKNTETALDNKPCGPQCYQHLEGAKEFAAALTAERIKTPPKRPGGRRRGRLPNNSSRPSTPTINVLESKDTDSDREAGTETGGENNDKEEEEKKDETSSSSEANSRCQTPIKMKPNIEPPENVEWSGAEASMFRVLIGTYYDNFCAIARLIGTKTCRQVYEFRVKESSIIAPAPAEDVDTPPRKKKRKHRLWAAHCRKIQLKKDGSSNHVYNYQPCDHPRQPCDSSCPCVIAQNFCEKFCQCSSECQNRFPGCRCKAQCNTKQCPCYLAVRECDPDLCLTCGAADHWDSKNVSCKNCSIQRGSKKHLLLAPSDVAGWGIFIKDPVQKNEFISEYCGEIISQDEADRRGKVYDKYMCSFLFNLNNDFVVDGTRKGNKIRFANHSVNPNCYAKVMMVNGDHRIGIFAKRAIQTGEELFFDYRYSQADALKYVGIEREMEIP
Sequence of EZH2-A677G (O75530 whole entry partner): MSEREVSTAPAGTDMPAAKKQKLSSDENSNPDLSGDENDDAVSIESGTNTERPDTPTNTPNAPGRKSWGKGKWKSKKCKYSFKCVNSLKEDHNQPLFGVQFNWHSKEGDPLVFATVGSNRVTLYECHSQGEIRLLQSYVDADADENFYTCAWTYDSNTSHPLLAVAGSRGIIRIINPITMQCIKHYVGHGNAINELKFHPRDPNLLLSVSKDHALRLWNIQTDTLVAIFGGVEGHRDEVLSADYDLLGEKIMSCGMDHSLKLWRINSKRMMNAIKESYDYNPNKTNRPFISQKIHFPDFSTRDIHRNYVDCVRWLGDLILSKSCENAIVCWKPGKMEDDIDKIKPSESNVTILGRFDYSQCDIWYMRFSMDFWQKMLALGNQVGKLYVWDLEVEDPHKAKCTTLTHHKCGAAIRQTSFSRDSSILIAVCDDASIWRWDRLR
Sequence of EZH2-A677G (Q15022 whole entry partner): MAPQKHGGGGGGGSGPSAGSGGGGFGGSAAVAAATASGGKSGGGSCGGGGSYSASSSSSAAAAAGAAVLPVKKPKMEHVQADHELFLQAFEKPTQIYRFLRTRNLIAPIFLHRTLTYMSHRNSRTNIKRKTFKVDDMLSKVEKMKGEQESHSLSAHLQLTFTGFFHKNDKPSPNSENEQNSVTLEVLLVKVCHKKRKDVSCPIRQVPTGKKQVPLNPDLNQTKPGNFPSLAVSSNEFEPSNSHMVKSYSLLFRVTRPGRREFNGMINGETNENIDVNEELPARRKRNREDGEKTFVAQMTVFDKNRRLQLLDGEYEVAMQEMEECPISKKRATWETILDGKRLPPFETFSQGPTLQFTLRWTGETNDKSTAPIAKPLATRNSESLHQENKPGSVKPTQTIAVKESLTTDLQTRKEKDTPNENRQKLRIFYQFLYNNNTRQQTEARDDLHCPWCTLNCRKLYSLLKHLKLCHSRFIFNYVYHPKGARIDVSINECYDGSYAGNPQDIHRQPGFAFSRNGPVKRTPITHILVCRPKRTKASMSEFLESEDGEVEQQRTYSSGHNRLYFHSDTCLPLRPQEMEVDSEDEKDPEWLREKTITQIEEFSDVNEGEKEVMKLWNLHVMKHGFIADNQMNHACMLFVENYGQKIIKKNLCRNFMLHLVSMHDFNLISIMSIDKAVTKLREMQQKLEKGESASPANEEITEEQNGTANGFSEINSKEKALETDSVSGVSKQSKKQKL
Sequence of EZH2-A677G (Q09028 whole entry partner): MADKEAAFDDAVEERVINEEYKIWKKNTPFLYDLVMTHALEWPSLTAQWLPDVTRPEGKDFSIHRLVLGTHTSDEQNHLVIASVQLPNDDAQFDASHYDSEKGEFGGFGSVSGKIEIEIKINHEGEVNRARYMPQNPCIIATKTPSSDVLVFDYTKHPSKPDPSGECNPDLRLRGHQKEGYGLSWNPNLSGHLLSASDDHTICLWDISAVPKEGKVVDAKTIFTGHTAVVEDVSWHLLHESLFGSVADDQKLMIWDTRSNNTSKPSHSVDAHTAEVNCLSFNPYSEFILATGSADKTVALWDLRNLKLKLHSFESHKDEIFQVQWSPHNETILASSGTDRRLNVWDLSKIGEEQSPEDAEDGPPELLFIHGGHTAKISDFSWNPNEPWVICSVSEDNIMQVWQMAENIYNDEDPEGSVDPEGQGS
Sequence of EZH2-A677G (Q6ZN18 whole entry partner): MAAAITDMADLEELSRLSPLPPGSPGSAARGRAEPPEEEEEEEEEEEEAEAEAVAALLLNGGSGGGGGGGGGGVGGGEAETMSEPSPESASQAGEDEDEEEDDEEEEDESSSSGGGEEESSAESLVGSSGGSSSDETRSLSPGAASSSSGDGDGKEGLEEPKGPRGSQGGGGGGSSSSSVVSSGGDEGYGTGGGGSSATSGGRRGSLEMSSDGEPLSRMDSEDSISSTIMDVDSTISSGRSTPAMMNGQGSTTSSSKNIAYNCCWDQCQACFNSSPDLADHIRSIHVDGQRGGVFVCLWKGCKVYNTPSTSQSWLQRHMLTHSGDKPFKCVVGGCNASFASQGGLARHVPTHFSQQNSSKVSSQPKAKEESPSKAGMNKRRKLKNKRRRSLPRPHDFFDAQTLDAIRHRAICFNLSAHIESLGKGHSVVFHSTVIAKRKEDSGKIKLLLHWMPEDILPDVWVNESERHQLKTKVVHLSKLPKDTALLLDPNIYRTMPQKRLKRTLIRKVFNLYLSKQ
Procedure: (§6) Histone H3 biotin labeling and S-adenosyl methionine were respectively diluted to 50 nM and 50 μM with a kinase buffer, then added to a 384-well plate at 4 μl/well. The test compound was diluted with a kinase buffer (it was diluted from the highest concentration 30 μM in 10 fold concentration gradient to 7 concentration points), then added to the 384-well microtiter plate at 4 μl/well. The plate was incubated at room temperature for 2 hours. Histone H3K27 Me3 monoclonal antibody and Streptavidin-XL665 were diluted to 30 nM and 500 nM by HTRF detection buffer, then added to the 384-well microplate at 10 µl/well and incubated for 1 hour. A well without an EZH2 enzyme and a compound was used as a negative control, and a well with an EZH2 enzyme but without a compound was used as a positive control. […] The compound logarithm concentration vs the inhibition percentage relative to the positive control well was plotted using GraphPad Prism, then the IC50 values were calculated.

EZH2-Y641F = EZH2-Y641F (Homo sapiens (Human), UniProt Q15910, Y641F); assay: EZH2-Y641F mutant enzyme activity assay (HTRF); format: biochemical; settings: read-out: IC50 for inhibiting the activity of enzyme EZH2-Y641F
Sequence of EZH2-Y641F (Q15910 whole entry Y641F): as the sequence (Q15910 whole entry A677G) above, with Y641F, G677A counted along it
Sequence of EZH2-Y641F (O75530 whole entry partner): as the sequence (O75530 whole entry partner) above
Sequence of EZH2-Y641F (Q15022 whole entry partner): as the sequence (Q15022 whole entry partner) above
Sequence of EZH2-Y641F (Q09028 whole entry partner): as the sequence (Q09028 whole entry partner) above
Sequence of EZH2-Y641F (Q6ZN18 whole entry partner): as the sequence (Q6ZN18 whole entry partner) above
Procedure: as §6

CCc1c(N(CC)C2CCOCC2)cc2oc(C3CCN(C(C)C)CC3)cc2c1C(=O)NCc1c(C)cc(C)[nH]c1=O [Example 9, N-((4,6-Dimethyl-2-oxo-1,2-dihydropyridin-3-yl)methyl)-5-ethyl-6-(ethyl(tetrahydro-2H-pyran-4-yl)amino)-2-(1-isopropylpiperidin-4-yl)benzofuran-4-carboxamide]
IC50 (Pfeiffer cells): 7 nM | IC50 (WSU-DLCL2 cells): 55 nM | Vd/F ([1]; read-out: Apparent Distribution Volume Vz/F): 35.1 ± 37.1 L/kg | AUC ([1]; read-out: Area Under Curve AUC): 274 ± 180 ng·h/mL | CL/F ([1]; read-out: Clearance CL/F): 562 ± 592 mL/min/kg | half-life ([1]; read-out: Half-Life t1/2 (converted)): 0.719 ± 0.15 h | MRT ([1]; read-out: Mean Residence Time MRT): 3.48 ± 0.107 h | Cmax ([1]; read-out: Plasma Conc. Cmax): 79.1 ± 50.7 ng/mL | IC50 (EZH2-A677G): 5.7 nM | IC50 (EZH2-Y641F): 4 nM
